Experimental data published in patent US9193731B2, “Antimicrobial compounds and methods of making and using the same” (Melinta Therapeutics, Inc., priority 2009, dated 2015).

What follows are compounds tested on Escherichia coli strain ATCC25922 (assay: standard microdilution assay to determine minimum inhibitory concentrations (MICs)). Conditions: Escherichia coli strain ATCC25922, microdilution.
Type: cell-based
Procedure: Minimum inhibitory concentrations (MICs) are determined by the microdilution method, typically in a final volume of 100 microliters, according to protocols outlined by The Clinical and Laboratory Standards Institute [CLSI; formerly the National Committee for Clinical Laboratory Standards (NCCLS)]. See CLSI: Methods for dilution antimicrobial susceptibility tests for bacteria that grow aerobically; approved standard-fifth edition. Wayne, Pa.: NCCLS; 2000. The assays can be also be performed in microtiter trays according to conventional methodologies as published by the CLSI. See CLSI. Methods for Dilution Antimicrobial Susceptibility Tests for Bacteria That Grow Aerobically; Approved Standard—Seventh Edition. CLSI Document M7-A7 [ISBN 1-56238-587-9] CLSI, 940 West Valley Road, Suite 1400, Wayne Pa. 19087-1898 USA, 2006).
The compounds of the present invention were tested for antimicrobial activity. The compounds were run against Escherichia coli strain ATCC25922 using a standard microdilution assay to determine minimum inhibitory concentrations (MICs). […] A “N/A” means that data is unavailable. It will be recognized by one skilled in the art that the compounds can be assessed against other bacterial organisms and that the presentation of data for activity against Escherichia coli is illustrative and in no way is intended to limit the scope of the present invention. The compounds of the present invention can be assayed against a range of other microorganisms depending upon the performance activity desired to be gathered. Furthermore, the “+”, “−”, and “N/A” representation and the selection of a cutoff value of 16 micrograms/ml is also illustrative and in no way is intended to limit the scope of the present invention.

SMILES | E. coli ATCC25922 MIC
CC(CN)CN1CCC(c2cc3cn(-c4ccc(CNCCCNC(=N)N)cc4)c(=O)nc3[nH]2)C1 (mixture of isomers) [Compound 2008a] | + (a “+” indicates that the compound has an MIC value of 16 micrograms/ml or less)
CC(CN)CN1CCC(c2cc3cn(-c4ccc(CNCCCNC(=N)N)cc4)c(=O)nc3[nH]2)C1 (mixture of isomers) [Compound 2016a] | + (a “+” indicates that the compound has an MIC value of 16 micrograms/ml or less)
N=C(N)NCCCNCc1ccc(-n2cc3cc(-c4ccc(S(=O)(=O)N(CC5CCOCC5)C5CCCNC5)cc4)[nH]c3nc2=O)cc1 (single isomer, unassigned) [Compound 844] | + (a “+” indicates that the compound has an MIC value of 16 micrograms/ml or less)
N=C(N)NCCCNCc1ccc(-n2cc3cc(-c4ccc(S(=O)(=O)N(CC5CCOCC5)C5CCCNC5)cc4)[nH]c3nc2=O)cc1 (single isomer, unassigned) [Compound 845] | + (a “+” indicates that the compound has an MIC value of 16 micrograms/ml or less)

Same assay, conditions: Escherichia coli, ATCC25922, Escherichia coli strain ATCC25922, microdilution; read-out: E. coli ATCC25922 MIC

SMILES | MIC
NCc1ccc(-n2cc3cc[nH]c3nc2=O)cc1 [Compound 142] | > 16 µg/mL
NCCCN(CCCN)Cc1ccc(-n2cc3cc[nH]c3nc2=O)cc1 [Compound 154] | > 16 µg/mL
COC(=O)C(N)Cc1cc2cn(-c3ccc(CN(CCCN)CCCN)cc3)c(=O)nc2[nH]1 (stereo not drawn) [Compound 169] | > 16 µg/mL
NCCCN(CCCN)Cc1ccc(-n2cc3cc(-c4ccc(CO)cc4)[nH]c3nc2=O)cc1 [Compound 179] | > 16 µg/mL
NCCCN(CCCN)Cc1ccc(-n2cc3cc(-c4ccc(F)cc4)[nH]c3nc2=O)cc1 [Compound 180] | > 16 µg/mL
NCCCN(CCCN)Cc1ccc(-n2cc3cc(Cn4nnc5ccccc54)[nH]c3nc2=O)cc1 [Compound 182] | > 16 µg/mL
NCCCN(CCCN)Cc1ccc(-n2cc3cc(CCc4ccccc4)[nH]c3nc2=O)cc1 [Compound 183] | > 16 µg/mL
Cn1cncc1-c1cc2cn(-c3ccc(CN(CCCN)CCCN)cc3)c(=O)nc2[nH]1 [Compound 184] | < 16 µg/mL
NCCCN(CCCN)Cc1ccc(-n2cc3cc(-c4ccc(C(=O)N[C@H]5CC[C@H](O)CC5)cc4)[nH]c3nc2=O)cc1 [Compound 192] | > 16 µg/mL
NCCCN(CCCN)Cc1ccc(-n2cc3cc(-c4ccc(C(=O)NC5CCOCC5)cc4)[nH]c3nc2=O)cc1 [Compound 193] | > 16 µg/mL
N=C(N)NCCCN(CCCN)Cc1ccc(-n2cc3cc[nH]c3nc2=O)cc1 [Compound 194] | < 16 µg/mL
NCCCN(CCCN)Cc1ccc(-n2cc3cc(-c4ccc(C(=O)Nc5cccnc5)cc4)[nH]c3nc2=O)cc1 [Compound 195] | > 16 µg/mL
NCCCN(CCCN)Cc1ccc(-n2cc3cc(-c4ccc(C(=O)NC5CN6CCC5CC6)cc4)[nH]c3nc2=O)cc1 (stereo not drawn) [Compound 196] | < 16 µg/mL
NCCCN(CCCN)Cc1ccc(-n2cc3cc(-c4ccc(C(=O)NC5CCNCC5)cc4)[nH]c3nc2=O)cc1 [Compound 197] | < 16 µg/mL
NCCCN(CCCN)Cc1ccc(-n2cc3cc(-c4ccc(S(=O)(=O)NC5CCNCC5)cc4)[nH]c3nc2=O)cc1 [Compound 198] | < 16 µg/mL
NCCCN(CCCN)Cc1ccc(-n2cc3cc(-c4ccc(S(=O)(=O)NC5CCNCC5)cc4F)[nH]c3nc2=O)cc1 [Compound 200] | < 16 µg/mL
NCCCN(CCCN)Cc1ccc(-n2cc3cc(-c4ccc(S(=O)(=O)NC5CN6CCC5CC6)cc4)[nH]c3nc2=O)cc1 (stereo not drawn) [Compound 201] | < 16 µg/mL
CN1CCC(NC(=O)c2ccc(-c3cc4cn(-c5ccc(CN(CCCN)CCCN)cc5)c(=O)nc4[nH]3)cc2)CC1 [Compound 204] | < 16 µg/mL
CN1C2CCC1CC(NC(=O)c1ccc(-c3cc4cn(-c5ccc(CN(CCCN)CCCN)cc5)c(=O)nc4[nH]3)cc1)C2 (stereo not drawn) [Compound 206] | < 16 µg/mL
N=C(N)NCCCN(CCCN)Cc1ccc(-n2cc3cc(-c4ccc(C(=O)NC5CN6CCC5CC6)cc4)[nH]c3nc2=O)cc1 (stereo not drawn) [Compound 216] | < 16 µg/mL
N=C(N)NCCCN(CCCN)Cc1ccc(-n2cc3cc(-c4ccc(C(=O)NC5CCNCC5)cc4)[nH]c3nc2=O)cc1 [Compound 217] | < 16 µg/mL

SMILES | MIC
NCCCN(CCCN)Cc1ccc(-n2cc3cc(-c4ccc(C(=O)O)cc4)[nH]c3nc2=O)cc1 [Compound 218] | > 16 µg/mL
N=C(N)NCCCN(CCCN)Cc1ccc(-n2cc3cc(-c4ccc(S(=O)(=O)NC5CN6CCC5CC6)cc4)[nH]c3nc2=O)cc1 (stereo not drawn) [Compound 219] | < 16 µg/mL
N=C(N)NCCCN(CCCN)Cc1ccc(-n2cc3cc(-c4ccc(S(=O)(=O)NC5CCNCC5)cc4)[nH]c3nc2=O)cc1 [Compound 220] | < 16 µg/mL
N=C(N)NCCCN(CCCN)Cc1ccc(-n2cc3cc(-c4ccc(S(=O)(=O)NC5CCNCC5)cc4F)[nH]c3nc2=O)cc1 [Compound 221] | < 16 µg/mL
NCc1ccc(-n2cc3cc(-c4ccc(C(=O)NC5CCNCC5)cc4)[nH]c3nc2=O)cc1 [Compound 224] | < 16 µg/mL
NCCCN(CCCN)Cc1ccc(-n2cc3cc(-c4ccc(C(=O)N(Cc5cc(F)cc(F)c5)C5CCNCC5)cc4)[nH]c3nc2=O)cc1 [Compound 225] | < 16 µg/mL
Cc1cc(CN(C(=O)c2ccc(-c3cc4cn(-c5ccc(CN(CCCN)CCCN)cc5)c(=O)nc4[nH]3)cc2)C2CCNCC2)no1 [Compound 226] | > 16 µg/mL
NCCCNCc1ccc(-n2cc3cc(-c4ccc(C(=O)NC5CCNCC5)cc4)[nH]c3nc2=O)cc1 [Compound 227] | < 16 µg/mL
NC(=O)/N=C(\N)NCCCNCc1ccc(-n2cc3cc(-c4ccc(C(=O)NC5CCNCC5)cc4)[nH]c3nc2=O)cc1 [Compound 228] | < 16 µg/mL
NC(=O)/N=C(/N)NCCNCc1ccc(-n2cc3cc(-c4ccc(C(=O)NC5CCNCC5)cc4)[nH]c3nc2=O)cc1 [Compound 229] | < 16 µg/mL
NCCCN(CCCN)Cc1ccc(-n2cc3cc(-c4ccc(S(=O)(=O)N(CC(=O)O)C5CCNCC5)cc4)[nH]c3nc2=O)cc1 [Compound 230] | > 16 µg/mL
NCCCN(CCCN)Cc1ccc(-n2cc3cc(-c4ccc(S(=O)(=O)N5CCN6CCC5CC6)c(F)c4)[nH]c3nc2=O)cc1 [Compound 231] | < 16 µg/mL
CSCCN(C1CCNCC1)S(=O)(=O)c1ccc(-c2cc3cn(-c4ccc(CN(CCCN)CCCN)cc4)c(=O)nc3[nH]2)cc1 [Compound 232] | < 16 µg/mL
NCCCN(CCCN)Cc1ccc(-n2cc3cc(-c4ccc(S(=O)(=O)N(CCN5CCOCC5)C5CCNCC5)cc4)[nH]c3nc2=O)cc1 [Compound 233] | < 16 µg/mL
N=C(N)NCCCNCc1ccc(-n2cc3cc(-c4ccc(C(=O)NC5CCNCC5)cc4)[nH]c3nc2=O)cc1 [Compound 234] | < 16 µg/mL
NCCCN(CCCN)Cc1ccc(-n2cc3cc(-c4ccc(S(=O)(=O)N(Cc5ccc(Cl)c(Cl)c5)C5CCNCC5)cc4)[nH]c3nc2=O)cc1 [Compound 235] | < 16 µg/mL
NCCCN(CCCN)Cc1ccc(-n2cc3cc(-c4ccc(S(=O)(=O)N(Cc5ccc(SC(F)(F)F)cc5)C5CCNCC5)cc4)[nH]c3nc2=O)cc1 [Compound 236] | < 16 µg/mL
Cc1cc(F)cc(CN(C2CCNCC2)S(=O)(=O)c2ccc(-c3cc4cn(-c5ccc(CN(CCCN)CCCN)cc5)c(=O)nc4[nH]3)cc2)c1 [Compound 237] | < 16 µg/mL
O=C(NC1CCNCC1)c1ccc(-c2cc3cn(-c4ccc(CNCc5c[nH]nn5)cc4)c(=O)nc3[nH]2)cc1 [Compound 240] | > 16 µg/mL
CN(CCCNCc1ccc(-n2cc3cc(-c4ccc(C(=O)NC5CCNCC5)cc4)[nH]c3nc2=O)cc1)C(=N)N [Compound 241] | < 16 µg/mL
